According to ChEMBL document CHEMBL6153102, “Rational Design, Synthesis, and Biological Evaluation of Novel c-Met Degraders for Lung Cancer Therapy” (J Med Chem, 2025):
Active and inactive are the calls of the source. The rule behind the calls is not given here.

Tests used:
[1] = target: T1, Protein cereblon/Hepatocyte growth factor receptor (Homo sapiens, UniProt P08581+Q96SW2); test: PROTAC activity at c-Met/CRBN in human EBC-1 cells assessed as effect on SALL4 level at 15.6 nM incubated for 24 hrs by proteomics analysis; type: cell-based
Target sequence in this assay (P08581 25-1390 limits assumed): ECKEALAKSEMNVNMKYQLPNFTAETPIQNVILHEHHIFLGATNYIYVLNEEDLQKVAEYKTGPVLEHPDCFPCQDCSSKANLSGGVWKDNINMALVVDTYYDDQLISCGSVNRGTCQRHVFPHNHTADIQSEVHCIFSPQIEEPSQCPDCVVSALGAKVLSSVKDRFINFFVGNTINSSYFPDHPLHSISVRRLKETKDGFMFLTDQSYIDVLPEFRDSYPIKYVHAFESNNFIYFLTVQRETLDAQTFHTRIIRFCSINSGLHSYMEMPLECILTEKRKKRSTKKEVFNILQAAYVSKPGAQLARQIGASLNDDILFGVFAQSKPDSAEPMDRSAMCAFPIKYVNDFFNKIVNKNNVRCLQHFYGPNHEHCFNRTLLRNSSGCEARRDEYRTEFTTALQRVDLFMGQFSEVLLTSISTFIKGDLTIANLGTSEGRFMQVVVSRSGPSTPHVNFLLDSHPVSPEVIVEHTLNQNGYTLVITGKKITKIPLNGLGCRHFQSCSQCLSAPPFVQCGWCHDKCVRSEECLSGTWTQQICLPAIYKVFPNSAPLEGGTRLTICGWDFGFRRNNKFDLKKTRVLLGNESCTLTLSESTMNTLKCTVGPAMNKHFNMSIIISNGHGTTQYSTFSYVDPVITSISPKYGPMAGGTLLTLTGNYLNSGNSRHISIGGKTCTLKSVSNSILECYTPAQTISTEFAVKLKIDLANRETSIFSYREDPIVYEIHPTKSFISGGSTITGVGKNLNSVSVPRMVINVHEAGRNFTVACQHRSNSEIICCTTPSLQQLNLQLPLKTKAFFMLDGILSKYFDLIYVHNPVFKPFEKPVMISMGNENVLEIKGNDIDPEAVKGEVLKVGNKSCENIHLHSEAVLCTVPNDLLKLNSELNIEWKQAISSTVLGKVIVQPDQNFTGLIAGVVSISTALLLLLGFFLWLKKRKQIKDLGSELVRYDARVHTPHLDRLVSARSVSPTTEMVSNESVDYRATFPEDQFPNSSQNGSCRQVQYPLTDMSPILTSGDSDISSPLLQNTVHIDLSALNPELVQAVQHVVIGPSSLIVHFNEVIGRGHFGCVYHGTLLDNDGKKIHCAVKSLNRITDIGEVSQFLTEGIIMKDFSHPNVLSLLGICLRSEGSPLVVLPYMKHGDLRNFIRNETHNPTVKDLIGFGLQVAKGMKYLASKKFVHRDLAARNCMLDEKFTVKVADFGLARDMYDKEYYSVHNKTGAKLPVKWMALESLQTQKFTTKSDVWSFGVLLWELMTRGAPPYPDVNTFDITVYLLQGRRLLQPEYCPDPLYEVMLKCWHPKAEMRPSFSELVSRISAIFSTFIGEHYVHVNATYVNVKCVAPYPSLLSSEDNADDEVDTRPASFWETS
Target sequence in this assay (Q96SW2 whole entry partner): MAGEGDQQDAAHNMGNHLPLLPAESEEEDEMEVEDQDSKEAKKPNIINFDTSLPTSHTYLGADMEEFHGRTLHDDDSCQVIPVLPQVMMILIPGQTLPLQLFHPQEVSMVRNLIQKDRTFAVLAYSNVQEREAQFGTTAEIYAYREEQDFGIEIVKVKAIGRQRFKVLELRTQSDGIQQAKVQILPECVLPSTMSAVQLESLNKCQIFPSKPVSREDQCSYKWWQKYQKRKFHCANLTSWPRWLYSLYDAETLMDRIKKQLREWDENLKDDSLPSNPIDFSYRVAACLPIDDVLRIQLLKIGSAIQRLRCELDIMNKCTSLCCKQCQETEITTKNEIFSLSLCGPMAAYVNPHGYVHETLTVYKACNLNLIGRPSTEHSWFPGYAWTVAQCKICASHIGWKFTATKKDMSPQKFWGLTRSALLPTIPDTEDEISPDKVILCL

EBC-1 [2] = test: Induction of apoptosis in human EBC-1 cells assessed as viable cells at 15 nM incubated for 24 hrs by Annexin V/FITC staining based flow cytometry analysis (reference value: 95.9%); type: functional; conditions: read-out: Activity
[3] = Half life in Sprague-Dawley rat at 5 mg/kg, ip measured upto 24 hrs by LC-MS/MS analysis; type: ADME, organism-based; conditions: in vivo
[4] = target: T1, Protein cereblon/Hepatocyte growth factor receptor; test: PROTAC activity at c-Met/CRBN in human EBC-1 cells assessed as reduction in UHRF1 level at 15.6 nM incubated for 24 hrs by proteomics analysis; type: cell-based
Target sequence in this assay (P08581 25-1390 limits assumed): as the sequence (P08581 25-1390 limits assumed) above
Target sequence in this assay (Q96SW2 whole entry partner): as the sequence (Q96SW2 whole entry partner) above

[5] = MRT (0 to t) in Sprague-Dawley rat at 5 mg/kg, ip measured upto 24 hrs by LC-MS/MS analysis; type: ADME, organism-based; conditions: in vivo
[6] = target: T1, Protein cereblon/Hepatocyte growth factor receptor; test: PROTAC activity at c-Met/CRBN in human EBC-1 cells assessed as induction of c-Met degradation at 15.6 nM by Western blotting analysis; type: cell-based; conditions: time 72.0 hrs
Target sequence in this assay (P08581 25-1390 limits assumed): as the sequence (P08581 25-1390 limits assumed) above
Target sequence in this assay (Q96SW2 whole entry partner): as the sequence (Q96SW2 whole entry partner) above

[7] = target: T1, Protein cereblon/Hepatocyte growth factor receptor; test: PROTAC activity at c-Met/CRBN in human A549 cells assessed as induction of c-Met degradation at 15.6 nM by Western blotting analysis; type: cell-based; conditions: time 72.0 hrs
Target sequence in this assay (P08581 25-1390 limits assumed): as the sequence (P08581 25-1390 limits assumed) above
Target sequence in this assay (Q96SW2 whole entry partner): as the sequence (Q96SW2 whole entry partner) above

[8] = target: T1, Protein cereblon/Hepatocyte growth factor receptor; test: PROTAC activity at c-Met/CRBN in human A549 cells assessed as reduction in c-Met level incubated for 24 hrs by Western blotting analysis; type: cell-based
Target sequence in this assay (P08581 whole entry): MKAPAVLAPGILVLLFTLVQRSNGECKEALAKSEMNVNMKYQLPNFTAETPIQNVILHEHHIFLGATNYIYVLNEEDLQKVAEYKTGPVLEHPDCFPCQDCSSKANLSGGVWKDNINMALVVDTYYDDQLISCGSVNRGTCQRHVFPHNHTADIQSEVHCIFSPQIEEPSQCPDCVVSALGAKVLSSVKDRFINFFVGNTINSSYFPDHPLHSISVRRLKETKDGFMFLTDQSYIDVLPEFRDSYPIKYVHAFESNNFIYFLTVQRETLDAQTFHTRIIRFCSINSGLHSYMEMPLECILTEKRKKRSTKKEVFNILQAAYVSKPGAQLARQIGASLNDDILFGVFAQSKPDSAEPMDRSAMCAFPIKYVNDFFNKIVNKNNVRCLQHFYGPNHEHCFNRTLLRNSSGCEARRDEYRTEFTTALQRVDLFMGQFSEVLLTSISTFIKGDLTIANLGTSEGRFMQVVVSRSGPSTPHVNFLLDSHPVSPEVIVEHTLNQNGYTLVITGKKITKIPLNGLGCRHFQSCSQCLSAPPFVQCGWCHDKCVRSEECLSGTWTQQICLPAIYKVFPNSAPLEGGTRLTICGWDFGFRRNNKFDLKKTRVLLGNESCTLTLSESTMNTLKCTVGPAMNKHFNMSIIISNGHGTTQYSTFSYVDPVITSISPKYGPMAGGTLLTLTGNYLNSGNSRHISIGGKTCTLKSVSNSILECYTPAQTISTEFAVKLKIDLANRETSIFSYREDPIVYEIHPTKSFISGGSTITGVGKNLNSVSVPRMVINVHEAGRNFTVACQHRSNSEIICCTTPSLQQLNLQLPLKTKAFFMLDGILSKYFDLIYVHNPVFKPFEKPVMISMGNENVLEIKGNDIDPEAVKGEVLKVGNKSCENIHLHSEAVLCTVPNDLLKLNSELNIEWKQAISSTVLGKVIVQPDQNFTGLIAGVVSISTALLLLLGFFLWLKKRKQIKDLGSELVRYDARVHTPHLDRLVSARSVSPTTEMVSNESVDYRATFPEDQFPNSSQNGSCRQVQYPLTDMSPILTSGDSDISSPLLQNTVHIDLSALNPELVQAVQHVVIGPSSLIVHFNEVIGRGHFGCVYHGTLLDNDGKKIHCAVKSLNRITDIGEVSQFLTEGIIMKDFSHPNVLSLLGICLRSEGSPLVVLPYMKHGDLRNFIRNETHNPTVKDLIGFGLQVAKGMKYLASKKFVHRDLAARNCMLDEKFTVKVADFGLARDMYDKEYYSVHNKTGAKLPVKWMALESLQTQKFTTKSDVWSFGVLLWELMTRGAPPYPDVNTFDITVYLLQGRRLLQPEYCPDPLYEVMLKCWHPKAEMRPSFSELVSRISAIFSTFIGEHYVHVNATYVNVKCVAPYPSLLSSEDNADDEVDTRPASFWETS
Target sequence in this assay (Q96SW2 whole entry): as the sequence (Q96SW2 whole entry partner) above

EBC-1 [9] = test: Induction of apoptosis in human EBC-1 cells assessed as late apoptotic cells at 5 nM incubated for 24 hrs by Annexin V/FITC staining based flow cytometry analysis (reference value: 1.65 %); type: functional
[10] = target: T1, Protein cereblon/Hepatocyte growth factor receptor; test: PROTAC activity at c-Met/CRBN in human EBC-1 cells assessed as induction of c-Met degradation at 15.6 nM incubated for 72 hrs by Western blotting analysis relative to control; type: cell-based
Target sequence in this assay (P08581 25-1390 limits assumed): as the sequence (P08581 25-1390 limits assumed) above
Target sequence in this assay (Q96SW2 whole entry partner): as the sequence (Q96SW2 whole entry partner) above

[11] = Toxicity in BALB/c nude mouse assessed as body weight loss at 10 to 20 mg/kg, ip administered for 7 days; type: organism-based; conditions: in vivo, 168 h, dose 10-20 mg/kg, time 7 day
EBC-1 [12] = test: Induction of apoptosis in human EBC-1 cells assessed as necrotic cells at 15 nM incubated for 24 hrs by Annexin V/FITC staining based flow cytometry analysis (reference value: 0.35 %); type: functional
[13] = Metabolic stability in human liver microsome assessed as half life; type: ADME; conditions: liver microsomes
[14] = target: T1, Protein cereblon/Hepatocyte growth factor receptor; test: PROTAC activity at c-Met/CRBN in human EBC-1 cells assessed as reduction in c-Met level at 15.6 nM incubated for 24 hrs by proteomics analysis; type: cell-based
Target sequence in this assay (P08581 25-1390 limits assumed): as the sequence (P08581 25-1390 limits assumed) above
Target sequence in this assay (Q96SW2 whole entry partner): as the sequence (Q96SW2 whole entry partner) above

[15] = Volume of distribution at steady state in Sprague-Dawley rat at 2 mg/kg, iv measured upto 24 hrs by LC-MS/MS analysis; type: ADME, organism-based; conditions: in vivo
[16] = Toxicity in BALB/c nude mouse assessed as heart damage at 10 to 20 mg/kg, ip administered for 7 days by H and E staining based analysis; type: organism-based; conditions: in vivo, 168 h, dose 10-20 mg/kg, time 7 day
[17] = target: T1, Protein cereblon/Hepatocyte growth factor receptor; test: PROTAC activity at c-Met/CRBN in human EBC-1 cells assessed as induction of c-Met degradation at 100 nM incubated for 24 hrs by Western blotting analysis relative to control; type: cell-based
EBC-1 [18] = test: Induction of apoptosis in human EBC-1 cells assessed as late apoptotic cells at 15 nM incubated for 24 hrs by Annexin V/FITC staining based flow cytometry analysis (reference value: 1.65 %); type: functional
[19] = target: T1, Protein cereblon/Hepatocyte growth factor receptor; test: PROTAC activity at c-Met/CRBN in human EBC-1 cells assessed as reduction in TFPI2 level at 15.6 nM incubated for 24 hrs by proteomics analysis; type: cell-based
[20] = MRT (0 to t) in Sprague-Dawley rat at 2 mg/kg, iv measured upto 24 hrs by LC-MS/MS analysis; type: ADME, organism-based; conditions: in vivo
EBC-1 [21] = test: Induction of apoptosis in human EBC-1 cells assessed as necrotic cells at 5 nM incubated for 24 hrs by Annexin V/FITC staining based flow cytometry analysis (reference value: 0.35 %); type: functional
[22] = target: T1, Protein cereblon/Hepatocyte growth factor receptor; test: PROTAC activity at c-Met/CRBN in human EBC-1 cells assessed as reduction in TPX2 level at 15.6 nM incubated for 24 hrs by proteomics analysis; type: cell-based
[23] = AUC (0 to infinity) in Sprague-Dawley rat at 2 mg/kg, iv measured upto 24 hrs by LC-MS/MS analysis; type: ADME, organism-based; conditions: in vivo
[24] = target: T1, Protein cereblon/Hepatocyte growth factor receptor; test: PROTAC activity at c-Met/CRBN in human EBC-1 cells assessed as reduction in HELLS level at 15.6 nM incubated for 24 hrs by proteomics analysis; type: cell-based
[25] = Tmax in Sprague-Dawley rat at 2 mg/kg, iv measured upto 24 hrs by LC-MS/MS analysis; type: ADME, organism-based; conditions: in vivo
[26] = target: T1, Protein cereblon/Hepatocyte growth factor receptor; test: PROTAC activity at c-Met/CRBN in human EBC-1 cells assessed as reduction in IFRD1 level at 15.6 nM incubated for 24 hrs by proteomics analysis; type: cell-based
EBC-1 [27] = test: Antitumor activity against human EBC-1 cells xenografted BALB/c nude mouse assessed as reduction in tumor volume at 10 mg/kg, ip administered for 7 days; type: functional; design: scale not given: the % may be the effect or the level left; conditions: time 7 day
EBC-1 [28] = test: Antitumor activity against human EBC-1 cells xenografted BALB/c nude mouse assessed as reduction in tumor volume at 20 mg/kg, ip administered for 7 days; type: functional; design: scale not given: the % may be the effect or the level left; conditions: time 7 day
[29] = target: T1, Protein cereblon/Hepatocyte growth factor receptor; test: PROTAC activity at c-Met/CRBN in human EBC-1 cells assessed as effect on IKZF2 level at 15.6 nM incubated for 24 hrs by proteomics analysis; type: cell-based
[30] = Cmax in Sprague-Dawley rat at 5 mg/kg, ip measured upto 24 hrs by LC-MS/MS analysis; type: ADME, organism-based; conditions: in vivo
[31] = target: T1, Protein cereblon/Hepatocyte growth factor receptor; test: PROTAC activity at c-Met/CRBN in human EBC-1 cells assessed as reduction in c-Met level at 3.9 to 125 nM incubated for 24 hrs in presence of lenalidomide by Western blot analysis; type: cell-based; conditions: dose 3.9-125 nM
EBC-1 [32] = test: Antitumor activity against human EBC-1 cells xenografted in ip dosed BALB/c nude mouse assessed as reduction in tumor growth administered for 7 days; type: functional, organism-based; conditions: dose 10-20 mg/kg, time 7.0 day
EBC-1 [33] = test: Induction of apoptosis in human EBC-1 cells assessed as upregulation of cleaved caspase-3 level incubated for 24 hrs by Western blot analysis; type: functional, cell-based; conditions: dose 5-50 nM
[34] = Toxicity in BALB/c nude mouse assessed as liver damage at 10 to 20 mg/kg, ip administered for 7 days by H and E staining based analysis; type: organism-based; conditions: in vivo, 168 h, dose 10-20 mg/kg, time 7 day
EBC-1 [35] = test: Antitumor activity against human EBC-1 cells xenografted BALB/c nude mouse assessed as reduction in Ki67 expression at 10 to 20 mg/kg, ip administered for 7 days by immunohistochemical analysis; type: functional, organism-based; conditions: dose 10-20 mg/kg, time 7.0 day
MKN-45 = test: Antiproliferative activity against human MKN-45 cells assessed as cell viability incubated for 72 hrs by MTT assay; type: functional, cell-based; conditions: MKN-45, 72 h
[36] = target: T1, Protein cereblon/Hepatocyte growth factor receptor; test: PROTAC activity at c-Met/CRBN in human EBC-1 cells assessed as reduction in TXNDC9 level at 15.6 nM incubated for 24 hrs by proteomics analysis; type: cell-based

SMILES: COc1ccc(C(=O)N2CCC3(CCN(C(=O)CN4CCC(COc5cnc(-c6cccc(Cn7nc(-c8cccc(C#N)c8)ccc7=O)c6)nc5)CC4)CC3)CC2)cc1N1CCC(=O)NC1=O
- Activity [1]: No effect
- viability at 0.015 µM (EBC-1 [2]): 65%
- half-life [3]: 5.49 h
- Activity [4]: Active
- MRT last at 24 h [5]: 5.06 h
- Activity [6]: Time-dependent-effect
- Activity [7]: Time-dependent-effect
- DC50 [8]: 41.8 nM
- Activity (EBC-1 [9]): 3.43%
- Activity [10]: 93.1%
- Activity [11]: Non-toxic
- Activity (EBC-1 [12]): 0.58%
- half-life [13]: 0.362 h
- Activity [14]: Active
- Vdss [15]: 36.26 L/kg
- Activity [16]: Non-toxic
- Activity [17]: 90.3%
- Activity (EBC-1 [18]): 3.66%
- Activity [19]: Active
- MRT last at 24 h [20]: 2.49 h
- Activity (EBC-1 [21]): 0.42%
- Activity [22]: Active
- AUC(0-inf) [23]: 551 ng·h/mL
- Activity [24]: Active
- Tmax [25]: 5.04 min
- Activity [26]: Active
- Activity (EBC-1 [27]): 86.14%
- Activity (EBC-1 [28]): 86.14%
- Activity [29]: No effect
- Cmax [30]: 104 ng/mL
- Activity [31]: Active
- Activity (EBC-1 [32]): Dose-dependent-effect
- Activity (EBC-1 [33]): Dose-dependent-effect
- Activity [34]: Non-toxic
- Activity (EBC-1 [35]): inactive
- IC50 (MKN-45): 10 nM
- Activity [36]: Active
